From patent US10745360B2, “Quinoxaline compounds, method for preparing the same and use thereof” (Development Center for Biotechnology, priority 2014, dated 2020)

Columns and labels:
[1] = test system: B-Raf^V600E mutant COLO205 colon cancer cell; assay: Cell proliferation assay (CELLTITER 96), COLO205; assay type: cell-based; conditions: Homo sapiens, COLO 205; COLO205, 72 hours; read-out: Cytotoxicity (IC50 Ranking) COLO205 (B-Raf^V600E)
Experimental: (§1) Inhibition of cell growth by compounds was measured using CELLTITER 96® assay. The cytotoxicity of compounds was evaluated in B-Raf^V600E mutant A375 melanoma cell, B-Raf^V600E mutant COLO205 colon cancer cell, and SK-MEL-2 melanoma cell with wild type B-Raf (B-Raf^wt) and NRASQ^Q61R mutation. A375 and COLO205 cell line were cultured in DMEM containing 10% FCS and incubated at 37° C. in 5% CO2 atmosphere. SK-MEL-2 cell line was cultured in MEM containing 10% FCS and incubated at 37° C. in 5% CO2 atmosphere. A375, COLO205 and SK-MEL-2 cell were seeded into 96-well plates at 2000, 2000, and 4000 cells/well, respectively, and allowed to adhere for overnight. Then, these seeded cells were treated with increasing concentrations of the test compounds and incubated for another 72 hours. At the end of the incubation, CELLTITER 96® Aqueous One Solution Reagent (Promega) was added and incubated for 4 hours. Cell viability was determined by measuring absorbance at 490 nm using EMAX® microplate reader (Molecular Devices).
(§2) The 50% inhibitory concentration (IC50) value was calculated by plotting the percentage of growth inhibition against the concentration of compound, using GraphPad Prism5 software for curve fitting.

[2] = test system: SK-MEL-2 melanoma cell with wild type B-Raf (B-Raf^wt) and NRAS^Q61R mutation; assay: Cell proliferation assay (CELLTITER 96), SK-MEL-2; assay type: cell-based; conditions: Homo sapiens; SK-MEL-2, 72 hours; given as bound; read-out: Cytotoxicity (IC50 Ranking) SK-MEL-2 (NRAS^Q61R, B-Raf^wt)
Experimental: as §1, §2

B-Raf kinase = target: T1, B-Raf kinase (Homo sapiens, UniProt P15056); assay: B-Raf kinase assay ([33P] incorporation into MEK1 K97R); assay type: biochemical; conditions: recombinant B-Raf, 8 μM ATP, 30 min, 30° C.; read-out: IC50 ranking against B-Raf kinase
T1 construct: purchased Upstate Biotechnology
Experimental: Inhibition of kinase activity by a test compound disclosed herein was estimated by quantifying the amount of [^33P] incorporation of a substrate in the presence of the test compound. Standard assay conditions were 5 ng of recombinant B-Raf kinase (Upstate Biotechnology) with 500 ng MEK1(Map-erk kinase; K97R) in the assay buffer (8 μM ATP, 0.5 μCi [^33P]ATP (specific activity 3000 Ci/mmol, PerkinElmer), 50 mM Tris/HCl (pH 7.5), and 1 mM EGTA, 1 mM Na3VO4, 1% 2-mercaptoethanol, 0.1% Brij 35, and 0.2 mg/ml BSA) in a final volume of 25 μL. Reactions were incubated at 30° C. for 30 min and stopped by adding 3% phosphoric acid, harvested onto a 96-well GF/B UniFilter (PerkinElmer) using a unifilter harvester (PerkinElmer), and counted with a TopCount microplate scintillation counter (PerkinElmer). The IC50 values of inhibitors were determined after carrying out assays at 3-fold serially diluted concentrations of each compound in duplication. The results were analyzed using linear regression software (GraphPad Prism 4; GraphPad Software Inc.).

[3] = test system: B-Raf^V600E mutant A375 melanoma cell; assay: Cell proliferation assay (CELLTITER 96), A375; assay type: cell-based; conditions: Homo sapiens, A-375; A375, 72 hours; read-out: Cytotoxicity (IC50 Ranking) A375 (B-Raf^V600E)
Experimental: as §1, §2

B-Raf^V600E kinase = target: T2, B-Raf^V600E kinase (Homo sapiens, UniProt P15056, V600E); assay: B-Raf V600E kinase assay ([33P] incorporation into MEK1 K97R); assay type: biochemical; conditions: recombinant B-Raf^V600E, 8 μM ATP, 30 min, 30° C.; read-out: IC50 ranking against B-Raf^V600E kinase
T2 construct: purchased Upstate Biotechnology
Experimental: (§3) Inhibition of kinase activity by a test compound disclosed herein was estimated by quantifying the amount of [^33P] incorporation of a substrate in the presence of the test compound. Standard assay conditions were 5 ng of recombinant B-Raf^V600E kinase (Upstate Biotechnology) with 500 ng MEK1 (K97R) in assay buffer (8 μM ATP, 0.5 μCi [^33P]ATP (specific activity 3000 Ci/mmol, PerkinElmer), 50 mM Tris/HCl (pH 7.5), and 1 mM EGTA, 1 mM Na3VO4, 1% 2-mercaptoethanol, 0.1% Brij 35, and 0.2 mg/ml BSA), and the test compound (diluted with 4% DMSO) or DMSO alone (as a control) in a final volume of 25 μL. Reactions were incubated at 30° C. for 30 min and stopped by adding 3% phosphoric acid, harvested onto a 96-well GF/B UniFilter (PerkinElmer) using a unifilter harvester (PerkinElmer), and counted with a TopCount microplate scintillation counter (PerkinElmer). The IC50 values of inhibitors were determined after carrying out assays at 3-fold serially diluted concentrations of each compound in duplication. The results were analyzed using linear regression software (GraphPad Prism 4; GraphPad Software Inc.).

C-Raf kinase = target: T3, C-Raf kinase (Homo sapiens, UniProt P04049); assay: C-Raf kinase assay ([33P] incorporation into MEK1 K97R); assay type: biochemical; conditions: recombinant C-Raf, 8 μM ATP, 30 min, 30° C.; read-out: IC50 ranking against C-Raf kinase
T3 construct: purchased Upstate Biotechnology
Experimental: as §3, with “were 2” for “were 5”, “recombinant C-Raf” for “recombinant B-Raf^V600E”, “ng MEK1(K97R)” for “ng MEK1 (K97R)”

T2 sequence (P15056 whole entry V600E): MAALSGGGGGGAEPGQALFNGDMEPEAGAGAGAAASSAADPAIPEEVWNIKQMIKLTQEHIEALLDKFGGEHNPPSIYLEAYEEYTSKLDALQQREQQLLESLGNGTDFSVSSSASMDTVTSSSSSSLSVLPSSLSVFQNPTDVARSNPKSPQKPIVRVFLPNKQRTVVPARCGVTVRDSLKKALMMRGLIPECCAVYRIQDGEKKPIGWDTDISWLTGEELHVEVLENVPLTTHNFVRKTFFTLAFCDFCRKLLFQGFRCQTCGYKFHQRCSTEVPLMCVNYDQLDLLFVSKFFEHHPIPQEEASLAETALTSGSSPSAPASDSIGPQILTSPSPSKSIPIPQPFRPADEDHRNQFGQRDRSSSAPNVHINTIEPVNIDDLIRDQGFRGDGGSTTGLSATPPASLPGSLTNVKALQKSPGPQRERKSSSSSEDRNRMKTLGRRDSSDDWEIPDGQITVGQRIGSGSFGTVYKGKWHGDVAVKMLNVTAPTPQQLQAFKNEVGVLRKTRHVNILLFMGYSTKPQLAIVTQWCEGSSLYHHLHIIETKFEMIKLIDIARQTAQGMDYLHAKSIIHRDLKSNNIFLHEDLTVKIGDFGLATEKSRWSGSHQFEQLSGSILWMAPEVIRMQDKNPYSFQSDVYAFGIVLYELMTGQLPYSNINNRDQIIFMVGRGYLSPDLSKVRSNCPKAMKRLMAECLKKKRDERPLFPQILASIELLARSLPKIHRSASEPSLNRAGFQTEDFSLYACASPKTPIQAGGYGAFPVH
T3 sequence (P04049 whole entry): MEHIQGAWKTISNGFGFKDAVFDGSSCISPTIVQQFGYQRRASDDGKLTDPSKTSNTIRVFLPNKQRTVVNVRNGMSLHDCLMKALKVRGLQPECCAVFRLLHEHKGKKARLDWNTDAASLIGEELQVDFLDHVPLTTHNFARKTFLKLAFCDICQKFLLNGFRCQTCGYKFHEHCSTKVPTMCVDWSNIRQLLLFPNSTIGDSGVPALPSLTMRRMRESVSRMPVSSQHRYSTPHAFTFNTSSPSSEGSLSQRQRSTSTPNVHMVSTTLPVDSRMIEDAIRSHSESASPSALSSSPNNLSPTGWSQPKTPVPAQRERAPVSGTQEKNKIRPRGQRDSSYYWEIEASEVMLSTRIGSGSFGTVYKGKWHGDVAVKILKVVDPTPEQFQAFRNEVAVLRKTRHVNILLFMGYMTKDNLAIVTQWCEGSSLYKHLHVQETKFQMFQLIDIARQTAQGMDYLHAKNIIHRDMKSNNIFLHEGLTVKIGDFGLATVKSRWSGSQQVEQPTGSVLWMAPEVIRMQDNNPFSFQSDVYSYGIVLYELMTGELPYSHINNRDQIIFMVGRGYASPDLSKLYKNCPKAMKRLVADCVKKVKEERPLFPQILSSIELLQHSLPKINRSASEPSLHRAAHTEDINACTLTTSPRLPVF
T1 sequence (P15056 whole entry): as the sequence (P15056 whole entry V600E) above, with E600V counted along it

Row | IC50 (B-Raf kinase) [nM] | IC50 (B-Raf^V600E kinase) [nM] | IC50 (C-Raf kinase) [nM] | Compound | IC50 [1] [nM] | IC50 [2] [nM] | IC50 [3] [nM]
1 | < 300 | < 300 | < 300 | CCCS(=O)(=O)Nc1ccc(F)c(Nc2ccc3ncc(Nc4c(F)ccc(NS(=O)(=O)CCC)c4F)nc3c2)c1F [compound 1, N1-3-[(3-{2,6-difluoro-3-[(propylsulfonyl)amino]anilino}-6-quinoxalinyl)amino]-2,4-difluorophenyl-1-propanesulfonamide] | 1000 to 10000 | > 10000 | 1000 to 10000
2 | < 300 | < 300 | < 300 | CCCS(=O)(=O)Nc1ccc(F)c(Nc2ccc3ncc(Nc4c(F)cccc4F)nc3c2)c1F [compound 2, N1-(3-{[3-(2,6-difluoroanilino)-6-quinoxalinyl]amino}-2,4-difluorophenyl)-1-propanesulfonamide] | 300 to 1000 | > 10000 | 300 to 1000
3 | 300 to 1000 | 300 to 1000 | 300 to 1000 | CCCS(=O)(=O)Nc1ccc(F)c(Nc2ccc3ncc(OC)nc3c2N)c1F [compound 3, N1-{3-[(5-amino-3-methoxy-6-quinoxalinyl)amino]-2,4-difluorophenyl}-1-propanesulfonamide] |  |  | 
4 | < 300 | < 300 | < 300 | CCCS(=O)(=O)Nc1ccc(F)c(Nc2ccc3ncc(OC)nc3c2[N+](=O)[O-])c1F [compound 4, N1-{2,4-difluoro-3-[(3-methoxy-5-nitro-6-quinoxalinyl)amino]phenyl}-1-propanesulfonamide] | < 300 | > 10000 | < 300
5 | < 300 | < 300 | < 300 | COc1cnc2ccc(Nc3c(F)ccc(NS(=O)(=O)CCCF)c3F)c([N+](=O)[O-])c2n1 [compound 5, N1-{2,4-difluoro-3-[(3-methoxy-5-nitro-6-quinoxalinyl)amino]phenyl}-3-fluoro-1-propanesulfonamide] | < 300 | > 10000 | < 300
6 | < 300 | < 300 | < 300 | CCCS(=O)(=O)Nc1ccc(F)c(Nc2ccc3ncc(OCCN4CCOCC4)nc3c2[N+](=O)[O-])c1F [compound 6, N1-(2,4-difluoro-3-{[3-(2-morpholinoethoxy)-5-nitro-6-quinoxalinyl]amino}phenyl)-1-propanesulfonamide] | < 300 | > 10000 | < 300
7 | < 300 | < 300 | < 300 | CCCS(=O)(=O)Nc1ccc(F)c(Nc2ccc3ncc(OCCOC)nc3c2[N+](=O)[O-])c1F [compound 7, N1-(2,4-difluoro-3-[3-(2-methoxyethoxy)-5-nitro-6-quinoxalinyl]aminophenyl)-1-propanesulfonamide] | < 300 | > 10000 | < 300
8 | 300 to 1000 | 300 to 1000 | 300 to 1000 | CCCS(=O)(=O)Nc1ccc(F)c(Nc2ccc3ncc(NC(=O)C4CC4)nc3c2)c1F [compound 8, N1-(7-{2,6-difluoro-3-[(propylsulfonyl)amino]anilino}-2-quinoxalinyl)-1-cyclopropanecarboxamide] | 1000 to 10000 | > 10000 | 1000 to 10000
9 | < 300 | < 300 | < 300 | CCCS(=O)(=O)Nc1ccc(F)c(Nc2ccc3ncc(OCCN(C)C)nc3c2[N+](=O)[O-])c1F [compound 9, N1-[3-({3-[2-(dimethylamino)ethoxy]-5-nitro-6-quinoxalinyl}amino)-2,4-difluorophenyl]-1-propanesulfonamide] | < 300 | > 10000 | < 300
10 | < 300 | < 300 | < 300 | CCCS(=O)(=O)Nc1ccc(F)c(Nc2ccc3ncc(OC)nc3c2C#N)c1F [compound 10, N1-{3-[(5-cyano-3-methoxy-6-quinoxalinyl)amino]-2,4-difluorophenyl}-1-propanesulfonamide] | < 300 | > 10000 | < 300
11 | < 300 | < 300 | < 300 | CCCS(=O)(=O)Nc1ccc(F)c(Nc2ccc3ncc(Nc4ccccc4F)nc3c2)c1F [compound 11, N1-(2,4-difluoro-3-{[3-(2-fluoroanilino)-6-quinoxalinyl]amino}phenyl)-1-propanesulfonamide] | 1000 to 10000 | > 10000 | 300 to 1000
12 | < 300 | < 300 | < 300 | CCCS(=O)(=O)Nc1ccc(F)c(Nc2ccc3ncc(Nc4cccnc4)nc3c2)c1F [compound 12, N1-(2,4-difluoro-3-{[3-(3-pyridylamino)-6-quinoxalinyl]amino}phenyl)-1-propanesulfonamide] | 300 to 1000 | > 10000 | 1000 to 10000
13 | < 300 | < 300 | < 300 | CCCS(=O)(=O)Nc1ccc(F)c(Nc2ccc3ncc(Nc4ccc(F)cc4F)nc3c2)c1F [compound 13, N1-(3-{[3-(2,4-difluoroanilino)-6-quinoxalinyl]amino}-2,4-difluorophenyl)-1-propanesulfonamide] | 1000 to 10000 | > 10000 | 300 to 1000
14 | 1000 to 10000 |  |  | CCCS(=O)(=O)Nc1ccc(F)c(Nc2cc3nc(OC)cnc3cc2C)c1F [compound 32, N-(2,4-difluoro-3-(3-methoxy-7-methylquinoxalin-6-ylamino)phenyl)propane-1-sulfonamide] |  |  | 
15 | 1000 to 10000 | 1000 to 10000 | 1000 to 10000 | CCCS(=O)(=O)Nc1cc(Nc2ccc3ncc(OC)nc3c2C#N)ccc1C [compound 45, N-(5-(5-cyano-3-methoxyquinoxalin-6-ylamino)-2-methylphenyl)propane-1-sulfonamide] |  |  | 
